Data on 14 compounds can be found in publication PMC8838532 (Molecules, 2022).

What is called viability is a read-out of living cells in per cent, often relative to untreated cells. For orientation: cell viability means the share of living cells, or the viability signal relative to a control. What is called IC50 is the concentration needed to halve the response being measured. The melting point is the temperature of the solid-liquid transition.

Like-named read-outs stand apart in the source and are kept apart here.

The subject of data set [1] is K562 cells. The settings on record: 150 μM, Figure 1; cited from earlier work.
The test system of data set [2] is A549 cells. Conditions: 150 μM, cited from earlier work; for % viability reduction A549 cells: Figure 1.
Data set [3] relates to K562 cells. The data set is described as follows: Resazurin cytotoxicity assay in K562 cells. Conditions: for viability at 10 µM: read-out: percentage of viability. In general terms: Alamar Blue is a resazurin reagent that responds to reducing activity.
In another data set the test system is WSS-1 cells. The data set is described as follows: Resazurin cytotoxicity assay in WSS-1 cells. The data set is classed as cell-based. Conditions: WSS-1 healthy human cells, 48 h. The procedure:
(§1) The A549 cell line (CCL-185™; ATCC, Manassas, VA, USA), from human lung carcinoma epithelium, and the K562 cell line (Rio de Janeiro Cell Bank, BCRJ: 0126, Rio de Janeiro, RJ, Brazil), a human chronic myeloid cell line expressing the BCR-ABL1 protein, were grown in RPMI-1640 culture medium (Merck, Darmstadt, Hesse, Germany) supplemented with 10% heat-inactivated fetal bovine serum (FBS; Vitrocell, Campinas, SP, Brazil). WSS-1 [WS-1] (ATCC CRL-2029™) human […] cells were grown in high-glucose DMEM (Vitrocell) supplemented with 10% FBS (Vitrocell). All cell lines were maintained at 37 °C under 5% CO2, in a water jacket CO2 incubator (Forma Series II incubator, Thermo Fisher Scientific, Waltham, MA, USA).
(§2) Briefly, cells were seeded in 96-well microplates (2 × 10^4 cells/well for K562 cells and 5 × 10^4 cells/well for A549 and WSS-1 cells) and incubated with 10 µM of the test compounds for 48 h at 37 °C. A resazurin (Merck, Darmstadt, Hesse, Germany) solution (final concentration: 0.01 mg/mL) was added to each well before the end of the experiment, at 1 h before concluding for K562 cells, and 2 h before concluding for A549 and WSS-1 cells. Fluorescence readings (λex = 560 nm, […]) were carried out immediately after the addition of resazurin (t0) and at the end of the experiment (tn) with a FlexStation 3 Benchtop multimode microplate reader (Molecular Devices, San Jose, CA, USA). Resorufin fluorescence was calculated by subtracting the fluorescence measured at t0 from that at tn. Cell viability was expressed as percentages, considering the mean resorufin fluorescence of the control wells (cells incubated with only DMSO) to be 100%. Tests were performed in triplicate. The same assay was carried out to generate 8–10 points concentration-response curves (300 µM top compound concentration).
(§3) IC50 values were calculated by a four-parameter logistic curve function, using GraphPad Prism version 6.01 for Windows (GraphPad Software, San Diego, CA, USA, www.graphpad.com) (accessed on 29 December 2021).

Data set [4] has as its system A549 cells. Put plainly: Resazurin cytotoxicity assay in A549 cells. The settings on record: for fold more potent than imatinib / IC50: A549 cells; for fold more potent than imatinib: IC50 versus imatinib; for IC50: Homo sapiens, 48 h, resazurin, concentration-response curve; for SI WSS-1/A549: SI = IC50 (WSS-1)/IC50 (A549). The data set is classed as cell-based, human. The procedure: as §1, §2, §3

The subject of data set [5] is K562 cells. The arrangement: method as in PMID 30055465. The settings on record: cited from earlier work.
The subject of data set [6] is K562 cells. Conditions: Figure 1; cited from earlier work.

Consider `Cc1ccc(NC(=O)c2ccc(CN3CCN(C)CC3)cc2)cc1Nc1nccc(-c2cccnc2)n1` [Imatinib, imatinib], for which, in the data set on K562 cells [1], the “% viability reduction K562 cells” value is reported as 61.7%. Also, the “% viability reduction A549 cells” value in the data set with A549 cells [2] was 61.2%. Further, in the data set with K562 cells [3] (Homo sapiens, K562, 48 h), the viability at 10 µM came out at 30.7%.
Turning to `CC(=O)NCC(=O)Nc1ccc(C)c(Nc2nccc(-c3cccnc3)n2)c1` [compound 8], the “% viability reduction K562 cells” value with K562 cells [1] was 66.3%. Moreover, in the data set with A549 cells [2], the “% viability reduction A549 cells” value was 61.5% and the cell viability is 38.5%.
For the compound `Cc1ccc(-n2cc(CN3C(=O)C(F)(F)c4ccccc43)nn2)cc1Nc1nccc(-c2cccnc2)n1` [compound 3a, 3.3-difluoro-1-((1-(4-methyl-3-((4-(pyridin-3-yl)pyrimidin-2-yl)amino)phenyl)-1H-1,2,3-triazole-4-yl)methyl)indoline-2-one], the melting point came out at 222 °C. In the data set on WSS-1 cells, this compound had a concentration for half-maximal inhibition (IC50) of 11.6 µM. Moreover, in the data set with A549 cells [4], the “fold more potent than imatinib” value is given as “approximately 10 fold”, the half-inhibitory concentration (IC50) came to 7.2 µM and the “SI WSS-1/A549” value amounted to 1.6.
Regarding `CCc1c2c(nc3ccc(OC(=O)N4CCC(N5CCCCC5)CC4)cc13)-c1cc3c(c(=O)n1C2)COC(=O)[C@]3(O)CC` [irinotecan], the IC50 in the data set with K562 cells [5] was 0.07 µM.
Turning to `Cc1ccc(-n2cc(CN3C(=O)C(F)(F)c4cc(Br)ccc43)nn2)cc1Nc1nccc(-c2cccnc2)n1` [3d, 5-bromo-3.3-difluoro-1-((1-(4-methyl-3-((4-(pyridin-3-yl)pyrimidin-2-yl)amino)phenyl)-1H-1,2,3-triazol-4-yl)methyl)indoline-2-one], the melting point was 218 to 219 °C. Further, the IC50 with WSS-1 cells was determined as 18.6 µM. Further, in the data set on A549 cells [4], the “fold more potent than imatinib” value is listed as “approximately 10 fold”, the half-inhibitory concentration (IC50) worked out at 7.3 µM and the “SI WSS-1/A549” value was 2.5.
Turning to `Cc1ccc(-n2cc(CN3C(=O)C(=O)c4cc(F)ccc43)nn2)cc1Nc1nccc(-c2cccnc2)n1` [2e, 5-fluoro-1-((1-(4-methyl-3-((4-(pyridin-3-yl)pyrimidin-2-yl)amino)phenyl)-1H-1,2,3-triazol-4 yl)methyl)indoline-2,3-dione], the melting point fell in the range of 251 to 253 °C.
Still for that read-out and setting: the value for `Cc1ccc(-n2cc(CN3C(=O)C(=O)c4ccccc43)nn2)cc1Nc1nccc(-c2cccnc2)n1` [compound 2a, 1-((1-(4-methyl-3-((4-(pyridin-3-yl)pyrimidin-2-yl)amino)phenyl)-1H-1,2,3-triazol-4-yl)methyl)indoline-2,3-dione] was 237 to 239 °C.
In turn, `Cc1ccc2c(c1)C(F)(F)C(=O)N2Cc1cn(-c2ccc(C)c(Nc3nccc(-c4cccnc4)n3)c2)nn1` [compound 3b, 3,3-difluoro-5-methyl-1-((1-(4-methyl-3-((4-(pyridin-3-yl)pyrimidin-2-yl)amino)phenyl)-1H-1,2,3-triazol-4-yl)methyl)indolin-2-one] gave a melting point of 102 to 104 °C. In the data set on WSS-1 cells, half-maximal inhibition (IC50) was put at 69.3 µM. In addition, the IC50 with K562 cells [3] (Homo sapiens, K562, 48 h, read-out: IC50 K562) stood at 35.8 µM. Besides, the viability at 10 µM in the data set with K562 cells [3] (Homo sapiens, K562, 48 h) is 57.5%. In addition, in the data set on K562 cells [3] (SI = IC50 (WSS-1)/IC50 (K562)), the “SI WSS-1/K562” value was found to be 1.9.
As to `Cc1ccc(-c2cn(-c3ccc(CN4CCN(C)CC4)c(C(F)(F)F)c3)nn2)cc1Nc1nccc(-c2cccnc2)n1` [compound 7], the concentration for half-maximal inhibition (IC50) in the data set with K562 cells [6] was 0.03 µM.
As for `Cc1ccc2c(c1)C(=O)C(=O)N2Cc1cn(-c2ccc(C)c(Nc3nccc(-c4cccnc4)n3)c2)nn1` [2b, 5-methyl-1-((1-(4-methyl-3-((4-(pyridin-3-yl)pyrimidin-2-yl)amino)phenyl)-1H-1,2,3-triazol-4 yl)methyl)indoline-2,3-dione], the melting point is 235 to 237 °C.
Consider `COc1ccc(CN2C(=O)C(=O)c3cc(-c4ccc(OC)cc4)ccc32)cc1` [compound 4], for which the IC50 in the data set on K562 cells [5] was 0.03 µM.
The compound `Cc1ccc(-n2cc(CN3C(=O)C(=O)c4cc(Cl)ccc43)nn2)cc1Nc1nccc(-c2cccnc2)n1` [2c, 5-chloro-1-((1-(4-methyl-3-((4-(pyridin-3-yl)pyrimidin-2-yl)amino)phenyl)-1H-1,2,3-triazol-4 yl)methyl)indoline-2,3-dione] yielded a melting point of 257 to 260 °C.
Still for that read-out and setting: the value for `Cc1ccc(-n2cc(CN3C(=O)C(=O)c4cc(Br)ccc43)nn2)cc1Nc1nccc(-c2cccnc2)n1` [2d, 5-bromo-1-((1-(4-methyl-3-((4-(pyridin-3-yl)pyrimidin-2-yl)amino)phenyl)-1H-1,2,3-triazol-4 yl)methyl)indoline-2,3-dione] was 267 to 270 °C.
`Cc1ccc(-n2cc(CN3C(=O)C(F)(F)c4cc(Cl)ccc43)nn2)cc1Nc1nccc(-c2cccnc2)n1` [3c, 5-chloro-3,3-difluoro-1-((1-(4-methyl-3-((4-(pyridin-3-yl)pyrimidin-2-yl)amino)phenyl)-1H-1,2,3-triazol-4-yl)methyl)indoline-2-one] had a melting point of 223 to 224 °C. In the data set with WSS-1 cells, this compound showed an IC50 of 13.5 µM. In the data set with A549 cells [4], the “fold more potent than imatinib” value is listed as “approximately 10 fold”, half-maximal inhibition (IC50) was put at 6.4 µM and the “SI WSS-1/A549” value stood at 2.1.
